Results from PMC6138237, “Machine intelligence decrypts β-lapachone as an allosteric 5-lipoxygenase inhibitor” (Chemical Science, 2018).
Like-named read-outs stand apart in the source and are kept apart here.

Key:
MAPKAPK2 = MAPKAPK2 (Homo sapiens, UniProt P49137); test: ExpresS Diversity Kinase Profile, Cerep (LANCE): MAPKAPK2; format: biochemical
MNK2 = MNK2 (Homo sapiens, UniProt Q9HBH9); test: ExpresS Diversity Kinase Profile, Cerep (LANCE): MNK2; format: biochemical
CHK2 = CHK2 (Homo sapiens, UniProt O96017); test: ExpresS Diversity Kinase Profile, Cerep (LANCE): CHK2; format: biochemical
15-LO-2 = target: T1, 15-LO-2 (Homo sapiens, UniProt O15296); test: 15-LO-2 inhibition assay, Cerep (Method A, fluorometry); format: biochemical; conditions: 5 µM
T1 sequence (O15296 1-676): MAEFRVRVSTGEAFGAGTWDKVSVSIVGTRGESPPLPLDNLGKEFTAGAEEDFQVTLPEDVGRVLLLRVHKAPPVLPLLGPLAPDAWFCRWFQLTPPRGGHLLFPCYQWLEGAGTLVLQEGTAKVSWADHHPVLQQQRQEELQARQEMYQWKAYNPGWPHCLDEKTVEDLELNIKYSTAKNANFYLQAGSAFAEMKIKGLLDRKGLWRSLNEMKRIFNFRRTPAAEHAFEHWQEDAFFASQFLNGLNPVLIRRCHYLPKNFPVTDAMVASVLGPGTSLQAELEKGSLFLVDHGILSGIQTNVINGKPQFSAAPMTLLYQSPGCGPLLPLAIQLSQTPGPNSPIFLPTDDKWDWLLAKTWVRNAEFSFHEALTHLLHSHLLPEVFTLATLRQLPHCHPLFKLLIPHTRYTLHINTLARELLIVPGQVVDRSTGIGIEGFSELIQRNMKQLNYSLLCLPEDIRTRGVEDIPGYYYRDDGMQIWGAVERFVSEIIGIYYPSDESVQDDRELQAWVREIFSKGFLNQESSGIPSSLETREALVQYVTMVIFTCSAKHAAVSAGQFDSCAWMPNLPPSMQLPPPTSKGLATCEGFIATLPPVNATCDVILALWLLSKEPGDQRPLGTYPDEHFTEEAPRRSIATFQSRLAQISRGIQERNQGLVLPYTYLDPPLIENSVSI

PKCβ2 = PKCβ2 (Homo sapiens, UniProt P05771); test: ExpresS Diversity Kinase Profile, Cerep (LANCE): PKCβ2; format: biochemical
TRKA = TRKA (Homo sapiens, UniProt P04629); test: ExpresS Diversity Kinase Profile, Cerep (LANCE): TRKA; format: biochemical
EGFR = EGFR (Homo sapiens, UniProt P00533); test: ExpresS Diversity Kinase Profile, Cerep (LANCE): EGFR; format: biochemical
EphA3 = target: T2, EphA3 (Homo sapiens, UniProt P29320); test: ExpresS Diversity Kinase Profile, Cerep (LANCE): EphA3; format: biochemical
T2 sequence (P29320 21-983): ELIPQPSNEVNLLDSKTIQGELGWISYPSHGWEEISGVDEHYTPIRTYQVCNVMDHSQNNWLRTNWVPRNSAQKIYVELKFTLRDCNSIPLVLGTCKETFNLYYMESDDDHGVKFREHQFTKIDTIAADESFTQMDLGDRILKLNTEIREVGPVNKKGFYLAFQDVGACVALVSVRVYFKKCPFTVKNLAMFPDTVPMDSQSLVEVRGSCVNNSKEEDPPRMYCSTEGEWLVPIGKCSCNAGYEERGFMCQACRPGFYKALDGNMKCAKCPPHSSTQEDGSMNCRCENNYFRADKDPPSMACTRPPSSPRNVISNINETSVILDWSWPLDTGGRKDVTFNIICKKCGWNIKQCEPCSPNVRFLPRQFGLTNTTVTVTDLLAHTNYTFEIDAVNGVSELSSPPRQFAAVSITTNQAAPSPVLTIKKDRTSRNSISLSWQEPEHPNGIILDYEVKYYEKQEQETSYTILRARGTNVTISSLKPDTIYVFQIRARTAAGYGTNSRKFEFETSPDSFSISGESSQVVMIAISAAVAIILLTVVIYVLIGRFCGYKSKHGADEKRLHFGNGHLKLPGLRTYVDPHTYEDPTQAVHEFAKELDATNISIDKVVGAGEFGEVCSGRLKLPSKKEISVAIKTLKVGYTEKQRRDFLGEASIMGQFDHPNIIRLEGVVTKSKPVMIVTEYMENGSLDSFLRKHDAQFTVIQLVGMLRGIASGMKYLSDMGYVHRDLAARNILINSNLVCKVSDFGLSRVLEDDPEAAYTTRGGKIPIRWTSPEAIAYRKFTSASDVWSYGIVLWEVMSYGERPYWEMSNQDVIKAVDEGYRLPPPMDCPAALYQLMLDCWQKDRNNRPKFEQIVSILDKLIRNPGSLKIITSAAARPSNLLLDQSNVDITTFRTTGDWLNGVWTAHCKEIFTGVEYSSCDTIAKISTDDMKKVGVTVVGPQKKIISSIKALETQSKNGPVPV

EP1 = target: T3, EP1 (Homo sapiens, UniProt P34995); test: EP1 functional agonist assay, Cerep (intracellular Ca2+)
T3 sequence (P34995 1-402): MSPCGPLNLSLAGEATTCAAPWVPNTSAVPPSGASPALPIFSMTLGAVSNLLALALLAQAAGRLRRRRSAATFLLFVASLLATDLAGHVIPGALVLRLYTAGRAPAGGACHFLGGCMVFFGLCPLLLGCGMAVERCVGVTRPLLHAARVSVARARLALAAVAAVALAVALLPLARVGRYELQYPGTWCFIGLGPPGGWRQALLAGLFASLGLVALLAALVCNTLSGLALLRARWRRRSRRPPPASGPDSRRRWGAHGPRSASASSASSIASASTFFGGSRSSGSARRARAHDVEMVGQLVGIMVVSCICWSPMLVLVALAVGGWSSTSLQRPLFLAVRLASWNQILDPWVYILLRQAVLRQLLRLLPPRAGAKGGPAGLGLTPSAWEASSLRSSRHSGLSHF

Pim2 = Pim2 (Homo sapiens, UniProt Q9P1W9); test: ExpresS Diversity Kinase Profile, Cerep (LANCE): Pim2; format: biochemical; conditions: Flag: Interference
FGFR1 = FGFR1 (Homo sapiens, UniProt P11362); test: ExpresS Diversity Kinase Profile, Cerep (LANCE): FGFR1; format: biochemical
[1] = Flag: Interference, read-out: % Inhibition of control values, 1st measurement
[2] = Flag: Interference, read-out: % Inhibition of control values, 2nd measurement
[3] = n = 2, Flag: Interference, read-out: % Inhibition of control values, Mean
[4] = n = 2, read-out: % Inhibition of control values, Mean
[5] = read-out: % Inhibition of control values, 1st measurement
[6] = read-out: % Inhibition of control values, 2nd measurement

Sequence of MNK2 (Q9HBH9 whole entry): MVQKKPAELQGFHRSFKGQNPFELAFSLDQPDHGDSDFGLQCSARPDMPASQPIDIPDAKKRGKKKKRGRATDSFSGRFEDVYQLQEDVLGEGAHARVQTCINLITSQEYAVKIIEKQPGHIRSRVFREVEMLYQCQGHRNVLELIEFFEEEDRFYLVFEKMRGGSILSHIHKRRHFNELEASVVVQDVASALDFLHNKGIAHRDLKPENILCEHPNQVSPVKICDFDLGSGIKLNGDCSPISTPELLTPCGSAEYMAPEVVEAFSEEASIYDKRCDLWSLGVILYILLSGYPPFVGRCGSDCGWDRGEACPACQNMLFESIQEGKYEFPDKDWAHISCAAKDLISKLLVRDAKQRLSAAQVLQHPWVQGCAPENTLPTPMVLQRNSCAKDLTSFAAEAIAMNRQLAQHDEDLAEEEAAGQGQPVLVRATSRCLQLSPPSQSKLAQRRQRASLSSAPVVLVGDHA
Sequence of FGFR1 (P11362 22-822): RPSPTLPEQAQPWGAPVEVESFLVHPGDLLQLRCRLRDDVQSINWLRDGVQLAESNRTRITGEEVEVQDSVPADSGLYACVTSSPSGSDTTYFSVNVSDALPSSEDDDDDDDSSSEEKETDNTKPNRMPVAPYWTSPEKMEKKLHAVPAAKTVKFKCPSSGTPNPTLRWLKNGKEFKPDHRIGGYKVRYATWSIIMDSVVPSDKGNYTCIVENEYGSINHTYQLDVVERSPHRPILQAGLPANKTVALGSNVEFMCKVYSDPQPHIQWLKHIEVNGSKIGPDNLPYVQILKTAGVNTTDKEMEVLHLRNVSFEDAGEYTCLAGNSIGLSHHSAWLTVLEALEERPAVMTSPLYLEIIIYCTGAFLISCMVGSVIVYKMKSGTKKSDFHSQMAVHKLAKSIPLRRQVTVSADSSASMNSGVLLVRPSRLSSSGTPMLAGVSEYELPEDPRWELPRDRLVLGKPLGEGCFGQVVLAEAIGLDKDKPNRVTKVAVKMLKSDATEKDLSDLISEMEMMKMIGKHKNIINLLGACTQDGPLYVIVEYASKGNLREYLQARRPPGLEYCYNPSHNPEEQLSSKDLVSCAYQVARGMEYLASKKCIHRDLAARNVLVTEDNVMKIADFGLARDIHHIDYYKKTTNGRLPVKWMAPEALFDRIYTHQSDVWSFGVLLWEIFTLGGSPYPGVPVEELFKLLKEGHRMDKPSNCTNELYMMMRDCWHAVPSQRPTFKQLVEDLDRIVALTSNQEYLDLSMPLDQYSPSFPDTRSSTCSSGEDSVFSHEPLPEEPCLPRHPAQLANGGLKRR
Sequence of MAPKAPK2 (P49137 whole entry): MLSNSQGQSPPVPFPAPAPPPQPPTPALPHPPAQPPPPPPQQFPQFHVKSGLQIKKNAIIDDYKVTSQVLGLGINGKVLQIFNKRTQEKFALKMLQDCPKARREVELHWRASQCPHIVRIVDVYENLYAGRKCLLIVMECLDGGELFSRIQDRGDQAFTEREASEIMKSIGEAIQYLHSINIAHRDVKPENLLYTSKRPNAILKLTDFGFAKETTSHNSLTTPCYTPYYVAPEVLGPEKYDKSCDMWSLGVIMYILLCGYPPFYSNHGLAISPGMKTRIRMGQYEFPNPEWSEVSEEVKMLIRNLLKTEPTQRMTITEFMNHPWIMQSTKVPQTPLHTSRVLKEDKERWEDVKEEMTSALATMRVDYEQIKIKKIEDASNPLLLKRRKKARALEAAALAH
Sequence of CHK2 (O96017 whole entry): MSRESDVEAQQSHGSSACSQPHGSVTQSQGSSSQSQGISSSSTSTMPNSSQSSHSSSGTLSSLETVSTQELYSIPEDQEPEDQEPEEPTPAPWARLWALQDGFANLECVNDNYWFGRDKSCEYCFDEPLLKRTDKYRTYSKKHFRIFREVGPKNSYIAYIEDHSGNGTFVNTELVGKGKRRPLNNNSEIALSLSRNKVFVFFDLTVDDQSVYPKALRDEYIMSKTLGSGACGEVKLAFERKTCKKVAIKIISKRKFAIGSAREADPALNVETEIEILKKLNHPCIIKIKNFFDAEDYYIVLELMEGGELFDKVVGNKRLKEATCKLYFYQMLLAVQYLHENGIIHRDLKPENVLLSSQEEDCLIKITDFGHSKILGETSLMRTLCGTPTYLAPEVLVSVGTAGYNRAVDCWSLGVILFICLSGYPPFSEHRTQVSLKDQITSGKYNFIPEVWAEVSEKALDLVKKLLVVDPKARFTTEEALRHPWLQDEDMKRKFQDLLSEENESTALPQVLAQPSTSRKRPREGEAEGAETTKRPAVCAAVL
Sequence of PKCβ2 (P05771 1-673 isoform P05771-2): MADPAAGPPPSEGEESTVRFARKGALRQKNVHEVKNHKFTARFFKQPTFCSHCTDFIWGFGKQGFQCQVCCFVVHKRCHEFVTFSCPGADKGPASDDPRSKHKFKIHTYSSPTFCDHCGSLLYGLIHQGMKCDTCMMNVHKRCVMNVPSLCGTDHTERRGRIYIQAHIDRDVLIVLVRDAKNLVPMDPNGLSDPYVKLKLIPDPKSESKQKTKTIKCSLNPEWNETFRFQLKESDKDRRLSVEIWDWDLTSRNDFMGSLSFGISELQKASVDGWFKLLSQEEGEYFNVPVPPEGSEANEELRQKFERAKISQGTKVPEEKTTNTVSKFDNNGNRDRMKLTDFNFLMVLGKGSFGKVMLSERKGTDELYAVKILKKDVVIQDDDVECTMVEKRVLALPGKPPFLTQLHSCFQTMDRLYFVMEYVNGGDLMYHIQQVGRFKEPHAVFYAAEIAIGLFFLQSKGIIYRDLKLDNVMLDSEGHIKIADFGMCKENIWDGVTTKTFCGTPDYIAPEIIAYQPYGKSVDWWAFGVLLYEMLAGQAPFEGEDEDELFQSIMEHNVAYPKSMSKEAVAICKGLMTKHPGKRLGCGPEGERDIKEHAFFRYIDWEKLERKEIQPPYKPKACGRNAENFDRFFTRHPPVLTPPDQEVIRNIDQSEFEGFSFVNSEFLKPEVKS
Sequence of EGFR (P00533 25-1210): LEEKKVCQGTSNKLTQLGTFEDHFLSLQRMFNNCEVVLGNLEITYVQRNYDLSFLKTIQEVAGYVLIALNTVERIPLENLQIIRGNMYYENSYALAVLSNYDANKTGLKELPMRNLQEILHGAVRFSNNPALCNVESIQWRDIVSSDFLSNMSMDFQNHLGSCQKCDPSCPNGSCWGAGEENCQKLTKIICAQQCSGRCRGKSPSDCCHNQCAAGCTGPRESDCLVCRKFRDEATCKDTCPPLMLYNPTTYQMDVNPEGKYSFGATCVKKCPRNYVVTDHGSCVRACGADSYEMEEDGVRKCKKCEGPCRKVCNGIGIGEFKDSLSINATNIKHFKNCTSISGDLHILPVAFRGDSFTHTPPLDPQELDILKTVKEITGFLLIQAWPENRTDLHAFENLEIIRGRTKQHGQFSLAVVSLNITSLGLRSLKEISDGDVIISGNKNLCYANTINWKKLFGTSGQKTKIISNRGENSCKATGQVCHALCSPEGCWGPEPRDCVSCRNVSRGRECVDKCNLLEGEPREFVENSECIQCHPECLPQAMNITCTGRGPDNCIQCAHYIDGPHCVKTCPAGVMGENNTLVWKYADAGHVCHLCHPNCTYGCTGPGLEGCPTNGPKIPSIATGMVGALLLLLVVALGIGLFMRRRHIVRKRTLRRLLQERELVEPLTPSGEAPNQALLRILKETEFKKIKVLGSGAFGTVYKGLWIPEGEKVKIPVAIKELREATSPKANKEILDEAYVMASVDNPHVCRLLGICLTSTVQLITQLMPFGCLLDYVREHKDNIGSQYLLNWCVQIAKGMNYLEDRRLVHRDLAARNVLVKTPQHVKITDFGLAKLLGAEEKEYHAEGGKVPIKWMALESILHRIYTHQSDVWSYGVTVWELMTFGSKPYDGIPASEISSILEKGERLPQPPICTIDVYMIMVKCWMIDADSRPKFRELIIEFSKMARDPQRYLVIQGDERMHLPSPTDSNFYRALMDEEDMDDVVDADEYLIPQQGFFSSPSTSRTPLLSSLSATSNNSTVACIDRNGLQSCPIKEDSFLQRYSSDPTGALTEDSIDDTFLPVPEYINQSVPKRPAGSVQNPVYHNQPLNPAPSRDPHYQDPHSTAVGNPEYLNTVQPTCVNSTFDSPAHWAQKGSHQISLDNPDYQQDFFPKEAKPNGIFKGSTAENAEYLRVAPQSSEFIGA
Sequence of TRKA (P04629 33-796): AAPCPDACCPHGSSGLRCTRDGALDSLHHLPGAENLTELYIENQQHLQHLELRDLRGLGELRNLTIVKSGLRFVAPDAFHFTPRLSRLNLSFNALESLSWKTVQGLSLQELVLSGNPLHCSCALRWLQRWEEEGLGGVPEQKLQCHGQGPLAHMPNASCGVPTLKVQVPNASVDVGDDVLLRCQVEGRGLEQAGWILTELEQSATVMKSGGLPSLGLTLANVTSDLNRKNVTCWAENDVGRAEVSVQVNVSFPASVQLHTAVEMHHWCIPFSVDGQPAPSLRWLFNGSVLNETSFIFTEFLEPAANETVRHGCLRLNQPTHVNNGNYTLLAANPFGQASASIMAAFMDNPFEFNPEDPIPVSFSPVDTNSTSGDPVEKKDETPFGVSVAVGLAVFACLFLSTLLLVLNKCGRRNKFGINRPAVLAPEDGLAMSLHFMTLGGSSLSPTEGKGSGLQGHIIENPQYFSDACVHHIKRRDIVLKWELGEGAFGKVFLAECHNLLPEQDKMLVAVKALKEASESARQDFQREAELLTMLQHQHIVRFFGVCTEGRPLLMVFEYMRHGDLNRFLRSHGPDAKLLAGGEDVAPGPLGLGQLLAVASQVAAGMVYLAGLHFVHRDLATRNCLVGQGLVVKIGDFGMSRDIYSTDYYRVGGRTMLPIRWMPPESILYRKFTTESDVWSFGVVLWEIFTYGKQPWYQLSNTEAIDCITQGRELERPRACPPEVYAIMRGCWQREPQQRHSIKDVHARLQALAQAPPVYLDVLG

`CC1(C)CCC2=C(O1)c1ccccc1C(=O)C2=O` [β-Lapachone] was tested, and the inhibition at 150 µM (MAPKAPK2; [1]) was -14.5%, the inhibition at 150 µM (MAPKAPK2; [2]) was -2.7% and the inhibition at 150 µM (MAPKAPK2; [3]) was -8.6%. It also gave an inhibition at 150 µM (MNK2; [4]) of 80.1%, an inhibition at 150 µM (MNK2; [5]) of 78.1% and an inhibition at 150 µM (MNK2; [6]) of 82.1%. For the same compound, the inhibition at 150 µM (CHK2; [1]) was 46.6%, the inhibition at 150 µM (CHK2; [2]) was 59.5% and the inhibition at 150 µM (CHK2; [3]) was 53.1%. The inhibition at 5 µM (15-LO-2; n = 2, read-out: % inhibition of control values, Mean) was -12.9%, the inhibition at 5 µM (15-LO-2; read-out: % inhibition of control values, 1st measure) was -12% and the inhibition at 5 µM (15-LO-2; read-out: % inhibition of control values, 2nd measure) was -13.8%. It also gave an inhibition at 150 µM (PKCβ2; [4]) of 34%, an inhibition at 150 µM (PKCβ2; [5]) of 36.5% and an inhibition at 150 µM (PKCβ2; [6]) of 31.6%. The inhibition at 150 µM (TRKA; [1]) was 38.1%, the inhibition at 150 µM (TRKA; [2]) was 45.7% and the inhibition at 150 µM (TRKA; [3]) was 41.9%. It also gave an inhibition at 150 µM (EGFR; [4]) of 67.1%, an inhibition at 150 µM (EGFR; [5]) of 68.5% and an inhibition at 150 µM (EGFR; [6]) of 65.7%. For the same compound, the inhibition at 150 µM (EphA3; [4]) was 65.1%, the inhibition at 150 µM (EphA3; [5]) was 66.8% and the inhibition at 150 µM (EphA3; [6]) was 63.3%. It also gave a remaining activity at 150 µM (EP1; read-out: % of control values, 1st measurement) of -11.9%, a remaining activity at 150 µM (EP1; read-out: % of control values, 2nd measurement) of -11.9% and a remaining activity at 150 µM (EP1; read-out: % of control values, Mean) of -11.9%. It also gave an inhibition at 150 µM (Pim2; [5]) of 79.6%, an inhibition at 150 µM (Pim2; [6]) of 82.6% and an inhibition at 150 µM (FGFR1; [1]) of 51.5%. For the same compound, the inhibition at 150 µM (FGFR1; [2]) was 60.5% and the inhibition at 150 µM (FGFR1; [3]) was 56%.
